Data on 1 molecule can be found in patent US20240307283A1, “COMPOSITIONS AND METHODS FOR DECREASING PIGMENTATION” (The General Hospital Corporation, priority 2021, published 2024).

Molecules are shown by their SMILES.

Data set [1] concerns the target T1, NNT (Homo sapiens, UniProt Q13423).
T1 sequence (Q13423 44-1086): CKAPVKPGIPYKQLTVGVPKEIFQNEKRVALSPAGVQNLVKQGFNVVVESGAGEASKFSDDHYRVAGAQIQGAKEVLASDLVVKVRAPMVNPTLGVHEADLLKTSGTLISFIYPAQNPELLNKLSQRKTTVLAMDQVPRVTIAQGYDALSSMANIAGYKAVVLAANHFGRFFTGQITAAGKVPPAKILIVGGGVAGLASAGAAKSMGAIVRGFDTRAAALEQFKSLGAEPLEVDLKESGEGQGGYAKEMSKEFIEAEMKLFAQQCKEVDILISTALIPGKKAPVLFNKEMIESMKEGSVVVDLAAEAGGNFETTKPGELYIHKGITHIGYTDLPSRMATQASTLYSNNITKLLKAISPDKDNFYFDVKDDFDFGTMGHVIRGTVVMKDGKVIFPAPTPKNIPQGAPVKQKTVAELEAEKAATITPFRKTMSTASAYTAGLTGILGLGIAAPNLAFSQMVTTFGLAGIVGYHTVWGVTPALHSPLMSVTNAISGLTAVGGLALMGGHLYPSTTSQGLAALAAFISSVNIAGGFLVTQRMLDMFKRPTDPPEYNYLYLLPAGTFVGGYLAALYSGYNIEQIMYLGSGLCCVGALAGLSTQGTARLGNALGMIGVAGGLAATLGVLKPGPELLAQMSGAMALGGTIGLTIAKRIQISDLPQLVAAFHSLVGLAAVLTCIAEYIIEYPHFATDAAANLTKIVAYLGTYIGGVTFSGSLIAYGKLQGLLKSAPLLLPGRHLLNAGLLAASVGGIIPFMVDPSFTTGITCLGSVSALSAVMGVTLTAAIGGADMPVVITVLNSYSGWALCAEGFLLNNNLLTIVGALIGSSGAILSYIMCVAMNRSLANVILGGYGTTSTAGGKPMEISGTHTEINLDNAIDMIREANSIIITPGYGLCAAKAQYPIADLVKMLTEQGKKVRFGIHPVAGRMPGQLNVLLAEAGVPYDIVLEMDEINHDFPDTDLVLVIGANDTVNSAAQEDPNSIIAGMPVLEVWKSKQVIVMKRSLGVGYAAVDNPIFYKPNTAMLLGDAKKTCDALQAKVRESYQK
Kind of data set: GSH/GSSG ratio (indirect endpoint of NNT enzyme activity) in primary melanocytes. It is filed as cell-based. Details: endogenous in cells; host or cells: primary human melanocytes (isolated from neonatal foreskins). The settings on record: different doses, 24 hours. How it is done: (§1) Glutathione measurements: Cell lysates were prepared from equal numbers of cells after 24 h of DCC or 2,3BD treatment, following the manufacturer's protocols. Seventy-two h post siRNA treatment or overexpression of NNT and their corresponding controls, glutathione levels were determined using the GSH/GSSG-Glo assay (Promega, #V6611) and luminescence was measured using an EnVision 2104 Multilabel Reader (PerkinElmer).

Data set [2] has as its target T1, NNT. As to the kind of experiment: GSH/GSSG ratio in UACC257 melanoma cells. In kind it is cell-based. Details: endogenous in cells. To be noted: different doses. How it is done:
as §1

Another data set relates to zebrafish melanocytes. Kind of data set: Chemical treatment of zebrafish, melanocytic brightness. It is filed as in vivo. To be noted: 24 hours, 100 μM 2,3BD or 50 μM DCC. How it is done:
Wildtype Tübingen zebrafish were placed in a 24 well plate at 72 hours post-fertilization, with 10 larvae per well for a total twenty larvae per condition. Larvae were treated for 24 hours with either 2,3BD (1 μM, 10 μM, 100 μM, 1 mM; Sigma Aldrich, #B85307), DCC (1 μM, 10 μM, 50 μM, 100 μM; Sigma Aldrich, #D80002), or DMSO (1:500) in E3 embryo medium. At 4 days post fertilization, larvae were imaged using a Nikon SMZ18 Stereomicroscope. Melanocytes from at least 5 zebrafish embryos of each group for each experiment were analyzed using the FIJI software enabling pixel-based color quantification.

The test system of the next data set is murine Melan-A cells. Kind of data set: Melanin content of Melan-A cells with NNT inhibitors. It is filed as cell-based, mouse. The settings on record: 2 mM, FIG. 3A. The method, then:
Murine Melan-A (Bennett et al., 1987) cells were obtained from the Wellcome Trust Functional Genomics Cell Bank. Melan-A cells were grown in RPMI 1640 supplemented with 10% FBS or FetalPlex (Gemini Bio-Products, #100-602), 100,000 U/L penicillin, 100 mg/L streptomycin sulphate, 100× Glutamax, and 200 nM TPA.
(§2) In vitro culture with NNT inhibitors: 2,3-Butanedione 97% (2,3 BD) (Sigma Aldrich, #B85307) (1 μM, 10 μM, 100 μM, 2 mM), N,N-Dicyclohexylcarbodiimide (DCC) (Sigma Aldrich, #D80002) (1 mM, 2 mM, 10 mM), and Palmitoyl coenzyme A lithium salt (Sigma Aldrich, #P9716) (10 μM, 2 mM) were reconstituted with DMSO (American Type Culture Collection, 4-X).
(§3) Melanin quantification: Equal numbers of cells were plated in 6-well plates. The cells were then harvested 72-96 hours post siRNA or NNT inhibitors compounds, as indicated in the legends, pelleted, washed in PBS and counted. 10^6 cells were used for measurement of protein concentration with the Pierce BCA protein assay (Thermo Fisher Scientific, #23225) and 10^6 cells were resuspended in 60 μl of 1 N NaOH solution and incubated at 60° C. for 2 h or until the melanin was completely dissolved. After cooling down to room temperature, samples were centrifuged at 500×g for 10 min and the supernatants were loaded onto a 96-well plate. The melanin content was determined by measuring the absorbance at 405 nm on an Envision plate reader, compared with a melanin standard (0 to 50 μg/ml; Sigma Aldrich, #M8631). Melanin content was expressed as micrograms per milligram of protein.

The test system of another data set is primary melanocytes. Kind of data set: Cell viability of primary melanocytes, different doses. It is filed as cell-based, human. To be noted: different doses, relative to vehicle, FIG. 10C. How it is done: (§4) Cell viability assay: Human melanoma cell lines and isolated primary cultured human melanocytes were propagated and tested in early passage (Passages 7 to 9). The effects of NNT inhibitors (2,3BD, DCC, and Palmitoyl coenzyme A lithium salt) on cell viability were evaluated by the CellTiter-Glo Luminescent Cell Viability Assay (Promega, #G7570) and measurement of luminescence was performed on an EnVision 2104 Multilabel Reader (PerkinElmer). Human melanoma cell lines and primary melanocytes were plated on 96-well white plates (10,000 cells/well) and were treated with the NNT inhibitors at the indicated concentrations for 24 h.

Data set [3] concerns UACC257 human melanoma cell line. Kind of data set: Cell viability of UACC257 cells. To be noted: different doses, FIG. 10E. It is filed as cell-based. How it is done: as §4
For data set [4], the system named is human melanocytes, dermal fibroblasts, and keratinocytes. Kind of data set: Cell viability of human skin cells with NNT inhibitors. The settings on record: up to 10 μM, FIG. 10B. In kind it is cell-based. The method, then:
Primary human keratinocytes were cultured in EpiLife® medium supplemented with human keratinocyte growth supplement (HKGS, ThermoFisher Scientific). Primary human fibroblasts were cultured in medium 106 supplemented with low serum growth supplement (LSGS, ThermoFisher Scientific). 10^6 and […] cells were plated per well of 6-well and 96-well plates, respectively. Drugs indicated in the figure legends were dissolved in DMSO and added 1:1000 to the culture media for 24 h at the concentrations indicated.
as §4

The subject of data set [5] is primary human melanocytes. Kind of data set: Intracellular melanin content of primary human melanocytes with NNT inhibitors. In kind it is cell-based. To be noted: 2.3 BD 2 mM for 72 hours, FIG. 10D.
Text: Primary human melanocytes were isolated from normal discarded foreskins and were established in TIVA medium as described previously (Khaled et al., 2010) or in Medium 254 (Life Technologies, #M254500) (Allouche et al., 2015). Human melanoma cell line UACC257 (sex unspecified) was obtained from the National Cancer Institute (NCI), Frederick Cancer Division of Cancer Treatment and Diagnosis (DCTD) Tumor Cell Line Repository. SK-MEL-30 ([…]) human melanoma cell line was from Memorial Sloan Kettering Cancer Center. Both melanoma cell lines have been authenticated by our lab using ATCC's STR profiling service. UACC257 and SK-MEL-30 cells were cultured in DMEM and RPMI medium (Life Technologies, #11875119) respectively, supplemented with 10% fetal bovine serum and 1% penicillin/streptomycin/L-glutamine in a humidified atmosphere of 95% air and 5% CO2 at 37° C.
as §2, §3

`C(=NC1CCCCC1)=NC1CCCCC1` [DCC, N,N′-Dicyclohexylcarbodiimide]: the GSH/GSSG ratio result at NNT [1] and on NNT [2] was “decreased GSH/GSSG ratios” throughout. Moreover, in the data set on zebrafish melanocytes, the “darkening of zebrafish embryos (melanocytic brightness)” value is “significant darkening”. Further, the melanin content entry with murine Melan-A cells is given as “increased melanin content”. Besides, the figures for the cell viability result (in the data set with primary melanocytes; in data set [3]) were “no impacts on cell viability” and “no impact on cell viability”, respectively. In addition, the “toxicity (viability)” value in data set [4] is recorded as “no significant toxicity”. For the same molecule, the intracellular melanin content entry in data set [5] is “significantly increased the melanin content”.
